Data as given in the supplement of paper PMC10307832.

compound: CC1=C(C(=NN1)C)CC2=C(C3=C(S2)N(C(=O)N(C3=O)C)CC(C)C)C(=O)N4C[C@@H](CO4)O + Cc1nc(Nc2ncc(C(=O)Nc3c(C)cccc3Cl)s2)cc(N2CCN(CCO)CC2)n1 [Dasatinib] (partner 0.075 µM); assay: relative viability (nuclei count vs DMSO), 5 days (fraction); higher = more cells survive; conditions: first compound 0.25 µM
Outline: (§1)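 After 5 days of treatment, lung cancer cells in 1536-well plates were fixed and stained in a single step (final 0.05% Triton X-100, 1% formaldehyde, 1 ug/ml Hoechst) and their nuclei counted on 4× images. Treatment had been applied by pin tool the day after seeding as one drug alone or as a fixed anchor-drug dose with five library-drug doses (not always all listed) in √10 steps. Relative viability is the nuclei count of treated wells divided by that of vehicle wells, and values are medians of duplicate plates.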

Cell Line	relative viability
NCI-H1793	0.377
PC-14	0.269
EKVX	0.303

compound: CC1=C(C(=NN1)C)CC2=C(C3=C(S2)N(C(=O)N(C3=O)C)CC(C)C)C(=O)N4C[C@@H](CO4)O + CCNC(=O)c1noc(-c2cc(C(C)C)c(O)cc2O)c1-c1ccc(CN2CCOCC2)cc1 [Luminespib] (partner 0.01 µM); assay: as above; conditions: first compound 0.0025 µM
Outline: as §1

Cell Line	relative viability
BEN	0.235
HARA	0.847
NCI-H322M	0.927
LCLC-97TM1	0.611
NCI-H2009	1.07
A-427	0.949
NCI-H441	0.413
NCI-H661	0.877
NCI-H1734	0.297
NCI-H460	0.0312
NCI-H2347	0.563
SK-LU-1	0.187
NCI-H1395	0.768
201T	1.04
NCI-H1915	0.868
HCC-827	0.748

Cell Line	relative viability
LXF-289	0.774
NCI-H23	0.242
NCI-H647	0.135
CAL-12T	0.393
NCI-H1651	0.843
EPLC-272H	0.738
NCI-H2228	0.145
NCI-H1355	0.836
NCI-H3122	0.088
NCI-H1437	1.13
NCI-H1755	0.592
NCI-H2023	0.868
HCC-15	0.378
NCI-H1793	0.608
PC-14	0.119
EKVX	0.948

same assay, conditions: first compound 0.007906 µM

Cell Line	relative viability
BEN	0.383
HARA	1.12
NCI-H322M	0.714
LCLC-97TM1	0.774
NCI-H2009	1.06
A-427	1.19
NCI-H441	0.405
NCI-H661	0.938
NCI-H1734	0.184
NCI-H460	0.0506
NCI-H2347	0.371
SK-LU-1	0.177
NCI-H1395	0.785
201T	1.1
NCI-H1915	0.738
HCC-827	0.445

Cell Line	relative viability
LXF-289	0.684
NCI-H647	0.138
CAL-12T	0.895
NCI-H1651	0.762
EPLC-272H	0.197
NCI-H2228	0.161
NCI-H1355	0.617
NCI-H3122	0.101
NCI-H1437	1.14
NCI-H1755	0.511
NCI-H2023	0.945
HCC-15	0.518
NCI-H1793	0.17
PC-14	0.179
EKVX	0.955

same assay, conditions: first compound 0.025 µM

Cell Line	relative viability
BEN	0.242
HARA	0.726
NCI-H322M	0.86
LCLC-97TM1	0.889
NCI-H2009	1.06
A-427	0.921
NCI-H441	0.326
NCI-H661	0.824
NCI-H1734	0.173
NCI-H460	0.037
NCI-H2347	0.447
SK-LU-1	0.182
NCI-H1395	0.607
201T	1.05
NCI-H1915	0.75
HCC-827	0.56

Cell Line	relative viability
LXF-289	0.56
NCI-H647	0.171
CAL-12T	0.315
NCI-H1651	0.969
EPLC-272H	0.235
NCI-H2228	0.207
NCI-H1355	0.684
NCI-H3122	0.0902
NCI-H1437	1.04
NCI-H1755	0.524
NCI-H2023	0.725
HCC-15	0.236
NCI-H1793	0.208
PC-14	0.286
EKVX	0.852

same assay, conditions: first compound 0.07906 µM

Cell Line	relative viability
BEN	0.335
HARA	0.543
NCI-H322M	0.887
LCLC-97TM1	0.698
NCI-H2009	1.13
A-427	1.03
NCI-H441	0.365
NCI-H661	0.913
NCI-H1734	0.184
NCI-H460	0.0359
NCI-H2347	0.362
SK-LU-1	0.183
NCI-H1395	0.461
201T	1.04
NCI-H1915	0.768
HCC-827	0.513

Cell Line	relative viability
LXF-289	0.613
NCI-H23	0.23
NCI-H647	0.325
CAL-12T	0.303
NCI-H1651	0.855
EPLC-272H	0.498
NCI-H2228	0.111
NCI-H1355	0.778
NCI-H3122	0.0646
NCI-H1437	1.19
NCI-H1755	0.356
NCI-H2023	0.603
HCC-15	0.43
NCI-H1793	0.164
PC-14	0.276
EKVX	0.764

same assay, conditions: first compound 0.25 µM

Cell Line	relative viability
BEN	0.325
HARA	0.933
NCI-H322M	0.861
LCLC-97TM1	0.801
NCI-H2009	1.02
A-427	0.957
NCI-H441	0.269
NCI-H661	0.885
NCI-H1734	0.167
NCI-H460	0.028
NCI-H2347	0.246
SK-LU-1	0.182
NCI-H1395	0.631
201T	1.05
NCI-H1915	0.816
HCC-827	0.482
LXF-289	0.783
NCI-H23	0.219
NCI-H647	0.163
CAL-12T	0.404
NCI-H1651	1.09
EPLC-272H	0.417
NCI-H2228	0.144
NCI-H1355	0.724
NCI-H3122	0.11
NCI-H1437	1.16
NCI-H1755	0.438
NCI-H2023	0.737
HCC-15	0.337
NCI-H1793	0.187
